Source: patent US9255295B2, “Method for evaluating the sensitizing potential of a test compound” (IMMUNOSEARCH, priority 2010, dated 2016)
Where two headings read alike, the source gives them in different places.

System: ARE gene family (AKR1B10, AKR1C1, AKR1C2, CYP1B1, FTH1P, FTL, G6PD, GCLM, NQO2, SLC7A11, TXNRD1, UGT1A1, UGT1A9, YWHAZ, CD36, CYP1A1, GCLC, HMOX1, NQO1, PSME2 …)
Settings: for AHR expression / AKR1B10 expression / AKR1C1 expression / AKR1C2 expression / CYP1A1 expression / CYP1B1 expression / FTH1P expression / FTL expression / GCLC expression / GCLM expression / HMOX1 expression / NQO1 expression / NQO2 expression / SLC7A11 expression / TXNRD1 expression / UGT1A1 expression / UGT1A9 expression: compared to the control

Structure (SMILES): CC=Cc1ccc(O)c(OC)c1 [Isoeugenol]
- AHR NUMBER OF GENES grade (0.1%): 0 (if this expression is lower, the grade is 0)
- AKR1B10 NUMBER OF GENES grade (0.1%): 0 (if this expression is lower, the grade is 0)
- AKR1C1 NUMBER OF GENES grade (0.1%): 0 (if this expression is lower, the grade is 0)
- AKR1C2 NUMBER OF GENES grade (0.1%): 0 (if this expression is lower, the grade is 0)
- ARE >1.3 (number of genes) (0.1%): 2
- CD36 expression compared to control (0.1%): 0.9
- CD36 grade (NUMBER OF GENES) (0.1%): 0 (if this expression is lower, the grade is 0)
- CYP1A1 NUMBER OF GENES grade (0.1%): 1 (If the expression is greater than 1.3 compared to the control, a grade of 11s given)
- CYP1B1 NUMBER OF GENES grade (0.1%): 1 (If the expression is greater than 1.3 compared to the control, a grade of 11s given)
- FTH1P NUMBER OF GENES grade (0.1%): 0 (if this expression is lower, the grade is 0)
- FTL NUMBER OF GENES grade (0.1%): 0 (if this expression is lower, the grade is 0)
- GCLC NUMBER OF GENES grade (0.1%): 0 (if this expression is lower, the grade is 0)
- GCLM NUMBER OF GENES grade (0.1%): 0 (if this expression is lower, the grade is 0)
- HMOX1 NUMBER OF GENES grade (0.1%): 0 (if this expression is lower, the grade is 0)
- NQO1 NUMBER OF GENES grade (0.1%): 0 (if this expression is lower, the grade is 0)
- NQO2 NUMBER OF GENES grade (0.1%): 0 (if this expression is lower, the grade is 0)
- S100A8 expression compared to control (0.1%): 1.1
- S100A8 grade (NUMBER OF GENES) (0.1%): 0 (if this expression is lower, the grade is 0)
- SLC7A11 NUMBER OF GENES grade (0.1%): 0 (if this expression is lower, the grade is 0)
- TOTAL ARE (number of genes) (0.1%): 2
- TXNRD1 NUMBER OF GENES grade (0.1%): 0 (if this expression is lower, the grade is 0)
- UGT1A1 NUMBER OF GENES grade (0.1%): 0 (if this expression is lower, the grade is 0)
- UGT1A9 NUMBER OF GENES grade (0.1%): 0 (if this expression is lower, the grade is 0)
- AHR expression (0.1%): 0.7
- AKR1B10 expression (0.1%): 0.9
- AKR1C1 expression (0.1%): 1.1
- AKR1C2 expression (0.1%): 1.0
- CYP1A1 expression (0.1%): 11.9
- CYP1B1 expression (0.1%): 12.2
- FTH1P expression (0.1%): 0.8
- FTL expression (0.1%): 1.0
- GCLC expression (0.1%): 0.8
- GCLM expression (0.1%): 1.1
- HMOX1 expression (0.1%): 0.9
- NQO1 expression (0.1%): 1.1
- NQO2 expression (0.1%): 1.0
- SLC7A11 expression (0.1%): 1.1
- TXNRD1 expression (0.1%): 1.1
- UGT1A1 expression (0.1%): 1.0
- UGT1A9 expression (0.1%): 0.8
- AHR NUMBER OF GENES grade (1%): 0 (if this expression is lower, the grade is 0)
- AKR1B10 NUMBER OF GENES grade (1%): 0 (if this expression is lower, the grade is 0)
- AKR1C1 NUMBER OF GENES grade (1%): 0 (if this expression is lower, the grade is 0)
- AKR1C2 NUMBER OF GENES grade (1%): 0 (if this expression is lower, the grade is 0)
- ARE >1.3 (number of genes) (1%): 3
- CD36 expression compared to control (1%): 1.3
- CD36 grade (NUMBER OF GENES) (1%): 1 (If the expression is greater than 1.3 compared to the control, a grade of 11s given)
- CYP1A1 NUMBER OF GENES grade (1%): 1 (If the expression is greater than 1.3 compared to the control, a grade of 11s given)
- CYP1B1 NUMBER OF GENES grade (1%): 1 (If the expression is greater than 1.3 compared to the control, a grade of 11s given)
- FTH1P NUMBER OF GENES grade (1%): 0 (if this expression is lower, the grade is 0)
- FTL NUMBER OF GENES grade (1%): 0 (if this expression is lower, the grade is 0)
- GCLC NUMBER OF GENES grade (1%): 0 (if this expression is lower, the grade is 0)
- GCLM NUMBER OF GENES grade (1%): 0 (if this expression is lower, the grade is 0)
- HMOX1 NUMBER OF GENES grade (1%): 0 (if this expression is lower, the grade is 0)
- NQO1 NUMBER OF GENES grade (1%): 0 (if this expression is lower, the grade is 0)
- NQO2 NUMBER OF GENES grade (1%): 0 (if this expression is lower, the grade is 0)
- S100A8 expression compared to control (1%): 1.0
- S100A8 grade (NUMBER OF GENES) (1%): 0 (if this expression is lower, the grade is 0)
- SLC7A11 NUMBER OF GENES grade (1%): 0 (if this expression is lower, the grade is 0)
- TOTAL ARE (number of genes) (1%): 3
- TXNRD1 NUMBER OF GENES grade (1%): 1 (If the expression is greater than 1.3 compared to the control, a grade of 11s given)
- UGT1A1 NUMBER OF GENES grade (1%): 0 (if this expression is lower, the grade is 0)
- UGT1A9 NUMBER OF GENES grade (1%): 0 (if this expression is lower, the grade is 0)
- AHR expression (1%): 0.9
- AKR1B10 expression (1%): 0.7
- AKR1C1 expression (1%): 1.2
- AKR1C2 expression (1%): 0.9
- CYP1A1 expression (1%): 219.2
- CYP1B1 expression (1%): 25.3
- FTH1P expression (1%): 0.9
- FTL expression (1%): 1.0
- GCLC expression (1%): 0.9
- GCLM expression (1%): 1.2
- HMOX1 expression (1%): 1.2
- NQO1 expression (1%): 1.0
- NQO2 expression (1%): 1.0
- SLC7A11 expression (1%): 1.1
- TXNRD1 expression (1%): 1.3
- UGT1A1 expression (1%): 1.1
- UGT1A9 expression (1%): 1.0
- AHR NUMBER OF GENES grade (10%): 0 (if this expression is lower, the grade is 0)
- AKR1B10 NUMBER OF GENES grade (10%): 0 (if this expression is lower, the grade is 0)
- AKR1C1 NUMBER OF GENES grade (10%): 0 (if this expression is lower, the grade is 0)
- AKR1C2 NUMBER OF GENES grade (10%): 0 (if this expression is lower, the grade is 0)
- ARE >1.3 (number of genes) (10%): 5
- CD36 expression compared to control (10%): 0.6
- CD36 grade (NUMBER OF GENES) (10%): 0 (if this expression is lower, the grade is 0)
- CYP1A1 NUMBER OF GENES grade (10%): 1 (If the expression is greater than 1.3 compared to the control, a grade of 11s given)
- CYP1B1 NUMBER OF GENES grade (10%): 1 (If the expression is greater than 1.3 compared to the control, a grade of 11s given)
- FTH1P NUMBER OF GENES grade (10%): 0 (if this expression is lower, the grade is 0)
- FTL NUMBER OF GENES grade (10%): 0 (if this expression is lower, the grade is 0)
- GCLC NUMBER OF GENES grade (10%): 0 (if this expression is lower, the grade is 0)
- GCLM NUMBER OF GENES grade (10%): 1 (If the expression is greater than 1.3 compared to the control, a grade of 11s given)
- HMOX1 NUMBER OF GENES grade (10%): 0 (if this expression is lower, the grade is 0)
- NQO1 NUMBER OF GENES grade (10%): 0 (if this expression is lower, the grade is 0)
- NQO2 NUMBER OF GENES grade (10%): 0 (if this expression is lower, the grade is 0)
- S100A8 expression compared to control (10%): 1.3
- S100A8 grade (NUMBER OF GENES) (10%): 1 (If the expression is greater than 1.3 compared to the control, a grade of 11s given)
- SLC7A11 NUMBER OF GENES grade (10%): 0 (if this expression is lower, the grade is 0)
- TOTAL ARE (number of genes) (10%): 5
- TXNRD1 NUMBER OF GENES grade (10%): 1 (If the expression is greater than 1.3 compared to the control, a grade of 11s given)
- UGT1A1 NUMBER OF GENES grade (10%): 0 (if this expression is lower, the grade is 0)
- UGT1A9 NUMBER OF GENES grade (10%): 1 (If the expression is greater than 1.3 compared to the control, a grade of 11s given)
- AHR expression (10%): 0.9
- AKR1B10 expression (10%): 0.5
- AKR1C1 expression (10%): 1.1
- AKR1C2 expression (10%): 0.7
- CYP1A1 expression (10%): 510.5
- CYP1B1 expression (10%): 39.8
- FTH1P expression (10%): 0.9
- FTL expression (10%): 0.9
- GCLC expression (10%): 0.8
- GCLM expression (10%): 1.5
- HMOX1 expression (10%): 1.2
- NQO1 expression (10%): 1.0
- NQO2 expression (10%): 0.9
- SLC7A11 expression (10%): 1.1
- TXNRD1 expression (10%): 1.5
- UGT1A1 expression (10%): 1.2
- UGT1A9 expression (10%): 1.6
- AHR NUMBER OF GENES grade (50%): 0 (if this expression is lower, the grade is 0)
- AKR1B10 NUMBER OF GENES grade (50%): 0 (if this expression is lower, the grade is 0)
- AKR1C1 NUMBER OF GENES grade (50%): 1 (If the expression is greater than 1.3 compared to the control, a grade of 11s given)
- AKR1C2 NUMBER OF GENES grade (50%): 1 (If the expression is greater than 1.3 compared to the control, a grade of 11s given)
- ARE >1.3 (number of genes) (50%): 11
- CD36 expression compared to control (50%): 0.6
- CD36 grade (NUMBER OF GENES) (50%): 0 (if this expression is lower, the grade is 0)
- CYP1A1 NUMBER OF GENES grade (50%): 1 (If the expression is greater than 1.3 compared to the control, a grade of 11s given)
- CYP1B1 NUMBER OF GENES grade (50%): 1 (If the expression is greater than 1.3 compared to the control, a grade of 11s given)
- FTH1P NUMBER OF GENES grade (50%): 0 (if this expression is lower, the grade is 0)
- FTL NUMBER OF GENES grade (50%): 1 (If the expression is greater than 1.3 compared to the control, a grade of 11s given)
- GCLC NUMBER OF GENES grade (50%): 1 (If the expression is greater than 1.3 compared to the control, a grade of 11s given)
- GCLM NUMBER OF GENES grade (50%): 1 (If the expression is greater than 1.3 compared to the control, a grade of 11s given)
- HMOX1 NUMBER OF GENES grade (50%): 1 (If the expression is greater than 1.3 compared to the control, a grade of 11s given)
- NQO1 NUMBER OF GENES grade (50%): 1 (If the expression is greater than 1.3 compared to the control, a grade of 11s given)
- NQO2 NUMBER OF GENES grade (50%): 0 (if this expression is lower, the grade is 0)
- S100A8 expression compared to control (50%): 1.5
- S100A8 grade (NUMBER OF GENES) (50%): 1 (If the expression is greater than 1.3 compared to the control, a grade of 11s given)
- SLC7A11 NUMBER OF GENES grade (50%): 1 (If the expression is greater than 1.3 compared to the control, a grade of 11s given)
- TOTAL ARE (number of genes) (50%): 11
- TXNRD1 NUMBER OF GENES grade (50%): 1 (If the expression is greater than 1.3 compared to the control, a grade of 11s given)
- UGT1A1 NUMBER OF GENES grade (50%): 0 (if this expression is lower, the grade is 0)
- UGT1A9 NUMBER OF GENES grade (50%): 0 (if this expression is lower, the grade is 0)
- AHR expression (50%): 1.0
- AKR1B10 expression (50%): 1.0
- AKR1C1 expression (50%): 2.2
- AKR1C2 expression (50%): 1.3
- CYP1A1 expression (50%): 87.1
- CYP1B1 expression (50%): 39.1
- FTH1P expression (50%): 1.0
- FTL expression (50%): 1.5
- GCLC expression (50%): 1.3
- GCLM expression (50%): 2.0
- HMOX1 expression (50%): 1.4
- NQO1 expression (50%): 1.8
- NQO2 expression (50%): 1.1
- SLC7A11 expression (50%): 2.2
- TXNRD1 expression (50%): 2.6
- UGT1A1 expression (50%): 1.2
- UGT1A9 expression (50%): 1.2
